{"source": "patent US20150335558A1", "about": "“NERVE GROWTH INHIBITOR, CUTANEOUS-SENSORY-IRRITATION INHIBITOR, AND MARKER FOR CUTANEOUS-SENSORY-IRRITATION DETECTION” (HOYU CO., LTD., priority 2012, published 2015)", "key": {"[1]": {"tested_on": "ICR mice", "assay": "Scratch bouts of ICR mice after 10% SDS application (Sample Experiment 1-1)", "type": "in vivo, mouse", "details": "ICR mice, 10% SDS aqueous solution 50 μL single application to rostral back, Day 0 to Day 4, vs untreated and solvent control", "protocol": "The present Sample Experiment was conducted using ICR mice, and an anionic surfactant, namely, sodium dodecyl sulfate (SDS), was used as a stimulating substance to analyze the scratch bouts of mice. After SDS had been applied, terfenadine (TRF) was administered as an antihistamine to determine its effect on scratch bouts.\nMale ICR mice at ages of 7 to 8 weeks, purchased from Japan SLC, were used. The mice were given solid feed under free water supply and subjected to preliminary rearing for 7 days or longer under a constant temperature/constant humidity environment with a temperature of 22±2° C., and a humidity of 55±10% before they were used in the test. The mice for use were used in the test at least 3 days after shearing/depilating the rostral back of each mouse. […]\nThe scratch bouts of mice were performed in view of the Kuraishi et al. report. That is, a single mouse was put in each chamber of the 4 divided sections in an acrylic box (13×9×35 cm) to be acclimated for at least an hour, and they were video recorded in an environment without any person for at least an hour a day from the day of applying the above 10% SDS aqueous solution (Day 0) to the 4th day after application (Day 4) to record their movement. Then, by watching the video, the number of scratch bouts against the rostral back by the hind leg was counted. […]"}, "[2]": {"tested_on": "mast cell deficient mice (WBB6F1-W/W^V) and normal control mice (WBB6F1-+/+)", "assay": "Scratch bouts of mast cell deficient and normal control mice after 10% SDS application (Sample Experiment 1-2)", "type": "in vivo, mouse", "details": "both mast cell deficient and normal control mice, 10% SDS aqueous solution 50 μL single application; no significant difference between both mice", "protocol": "The present Sample Experiment was conducted using mast cell deficient mice and normal control mice, and SDS was used as a stimulating substance to analyze the scratch bouts of mice. Further, the amount of histamine in the skin of each mouse was assessed after SDS had been applied. Male mast cell deficient mice at ages of 7 to 8 weeks (WBB6F1-W/W^V mouse), purchased from Japan SLC, and normal control mice that are wild mice at ages of 7 to 8 weeks (WBB6F1-+/+mouse) were used. The mice were given solid feed under free water supply and subjected to preliminary rearing for 7 days or longer under a constant temperature/constant humidity environment with a temperature of 22±2° C., and a humidity of 55±10% before they were used in the test. The mice for use were used in the test at least 3 days after shearing/depilating the rostral back of each mouse. A 10% aqueous solution composed of SDS dissolved in distilled water was applied a single time at 50 μL as a stimulating substance against the skin to the sheared/depilated rostral back of the mice mentioned above. If the surfactant solution had turned hard before application, it was heated and dissolved in a hot water bath of 37° C. before use. Distilled water was applied to the solvent control group (Vehicle). […]"}}, "data": [{"smiles": "CCCCCCCCCCCCOS(=O)(=O)[O-].[Na+]", "note": "[SDS, sodium dodecyl sulfate]", "values": [{"measurement": "scratch bouts of mice (number in 60 mins.) after stimulating substance", "setting": "[1]", "value": "increased significantly over time"}, {"measurement": "scratch bouts of mice (number in 60 mins.) after stimulating substance", "setting": "[2]", "value": "increased significantly with time"}]}]}
